The values that follow come from patent US9096591B2, “Tetracyclic compounds” (Medivation Technologies, Inc., priority 2007, dated 2015).

SMILES strings stand for the structures. Like-named read-outs stand apart in the source and are kept apart here.

Experiment [1] deals with T1, human recombinant histamine H1 receptor (Homo sapiens, UniProt P35367).
T1 construct: expressed in transfected cells; host or cells: CHO cells
The experiment in a line: Histamine H1 radioligand binding ([3H]Pyrilamine). The method, then: To evaluate in radioligand binding assays the activity of compounds of the invention, human recombinant histamine H1 receptor expressed in Chinese hamster ovary (CHO) cells (De Backer M D et al. Biochem. Biophys. Res Comm. 197(3):1601, 1993) in a modified Tris-HCl buffer (50 mM Tris-HCl, pH 7.4, 2 mM MgCl2, 100 mM NaCl, 250 mM Sucrose) were used. […] Non-specific binding was estimated in the presence of 1 μM pyrilamine. Receptor proteins were filtered and washed, the filters were then counted to determine [^3H]pyrilamine specifically bound. […] Biochemical assay results are presented as the percent inhibition of specific binding in Table 5.
To evaluate in radioligand binding assays the activity of compounds of the invention, human recombinant histamine H1 receptor expressed in Chinese hamster ovary (CHO) cells (De Backer, M. D. et al., Biochem. Biophys. Res. Comm. 197(3):1601, 1993) in a modified Tris-HCl buffer (50 mM Tris-HCl, pH 7.4, 2 mM MgCl2, 100 mM NaCl, 250 mM Sucrose) was used. […] Non-specific binding was estimated in the presence of 1 μM pyrilamine. Receptor proteins were filtered and washed, the filters were then counted to determine [^3H]Pyrilamine specifically bound. Compounds were screened at 1 μM, using 1% DMSO as vehicle. Biochemical assay results are presented as the percent inhibition of specific binding in Table 6.

In experiment [2] the target is T2, human recombinant adrenergic α2A receptor (Homo sapiens, UniProt P08913).
T2 construct: expressed in transfected cells; host or cells: insect Sf9 cells
T2 sequence (P08913 1-465): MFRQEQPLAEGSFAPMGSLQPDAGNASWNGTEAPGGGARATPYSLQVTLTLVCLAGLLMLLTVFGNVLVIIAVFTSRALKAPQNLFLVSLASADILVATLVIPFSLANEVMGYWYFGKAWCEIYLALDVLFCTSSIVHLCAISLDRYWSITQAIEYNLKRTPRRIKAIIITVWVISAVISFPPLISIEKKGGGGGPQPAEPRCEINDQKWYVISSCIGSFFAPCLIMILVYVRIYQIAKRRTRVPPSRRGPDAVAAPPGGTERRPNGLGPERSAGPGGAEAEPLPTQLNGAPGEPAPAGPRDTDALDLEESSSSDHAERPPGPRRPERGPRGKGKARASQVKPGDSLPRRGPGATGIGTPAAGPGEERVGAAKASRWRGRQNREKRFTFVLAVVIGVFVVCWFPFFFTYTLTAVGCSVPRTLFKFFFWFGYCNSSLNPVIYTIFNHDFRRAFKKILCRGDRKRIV
Briefly: Adrenergic α2A radioligand binding ([3H]MK-912). Particulars: for Inhibition of ligand binding, Adren. alpha2A: percent inhibition of specific binding; for inhibition at 1 µM: compounds screened at 1 μM, read-out: Inhibition of ligand binding, Adren. alpha2A (percent inhibition of specific binding). Also on record: Inhibition of ligand binding, Adren. alpha2A: concentration or dose not given beside the values. The method, then:
To evaluate in radioligand binding assays the activity of compounds of the invention, human recombinant adrenergic α2A receptor expressed in insect Sf9 cells (Uhlen S et al. J Pharmacol Exp Ther. 271:1558, 1994) in a modified Tris-HCl buffer (50 mM Tris-HCl, pH 7.4, 12.5 mM MgCl2, 2 mM EDTA) was used. Compounds of invention were incubated with 1 nM [^3H]MK-912 for 60 minutes at 25° C. MK912 is (2S-trans)-1,3,4,5′,6,6′,7,12b-octahydro-1′,3′-dimethyl-spiro[2H-benzofuro[2,3-a]quinolizine-2,4′(1′H)-pyrimidin]-2′(3′H)-one hydrochloride Non-specific binding was estimated in the presence of 10 μM WB-4101 (2-(2,6-Dimethoxyphenoxyethyl)aminomethyl-1,4-benzodioxane hydrochloride). Receptor proteins were filtered and washed, the filters were then counted to determine [^3H]MK-912 specifically bound. […] Biochemical assay results are presented as the percent inhibition of specific binding in Table 6.

The target in experiment [3] is T3, human recombinant serotonin (5-Hydroxytryptamine) 5-HT6 receptor (Homo sapiens, UniProt P50406).
T3 construct: expressed in transfected cells; host or cells: human HeLa cells
The experiment in a line: Serotonin 5-HT6 radioligand binding ([3H]LSD). Further details: Inhibition of ligand binding, Ser. 5-HT6: concentration or dose not given beside the values. As to conditions: for Inhibition of ligand binding, Ser. 5-HT6: percent inhibition of specific binding; for inhibition at 1 µM: compounds screened at 1 μM, read-out: Inhibition of ligand binding, Ser. 5-HT6 (percent inhibition of specific binding). An excerpt:
Receptor proteins were filtered and washed, the filters were then counted to determine [3H]LSD specifically bound. […] Biochemical assay results are presented as the percent inhibition of specific binding in Table 6.

[4] abbreviates: percent inhibition of specific binding, screened at 1 μM, read-out: Inhibition of ligand binding, Hist. H1.
Where [5] appears, read: 1 μM compound, […] [3H]Pyrilamine, read-out: Histamine Binding H1, percent inhibition of specific binding.
Setting [6] is: compounds screened at 1 μM, read-out: Inhibition of ligand binding, Hist. H1 (percent inhibition of specific binding).

By inhibition is commonly meant the drop in the measured response relative to a control, in per cent.

T1 sequence (P35367 whole entry): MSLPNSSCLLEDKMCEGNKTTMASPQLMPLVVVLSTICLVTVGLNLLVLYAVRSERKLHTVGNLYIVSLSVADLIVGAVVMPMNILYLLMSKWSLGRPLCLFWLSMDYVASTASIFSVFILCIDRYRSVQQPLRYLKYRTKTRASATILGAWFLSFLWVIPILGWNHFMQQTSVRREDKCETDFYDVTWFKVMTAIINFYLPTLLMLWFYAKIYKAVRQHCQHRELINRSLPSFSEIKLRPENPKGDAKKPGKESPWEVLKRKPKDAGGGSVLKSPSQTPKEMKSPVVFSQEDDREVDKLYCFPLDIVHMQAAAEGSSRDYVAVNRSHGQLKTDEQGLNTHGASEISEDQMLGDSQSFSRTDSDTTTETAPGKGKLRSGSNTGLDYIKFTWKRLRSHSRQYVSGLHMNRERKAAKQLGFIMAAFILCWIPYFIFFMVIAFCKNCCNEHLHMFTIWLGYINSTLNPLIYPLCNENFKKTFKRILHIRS
T3 sequence (P50406 whole entry): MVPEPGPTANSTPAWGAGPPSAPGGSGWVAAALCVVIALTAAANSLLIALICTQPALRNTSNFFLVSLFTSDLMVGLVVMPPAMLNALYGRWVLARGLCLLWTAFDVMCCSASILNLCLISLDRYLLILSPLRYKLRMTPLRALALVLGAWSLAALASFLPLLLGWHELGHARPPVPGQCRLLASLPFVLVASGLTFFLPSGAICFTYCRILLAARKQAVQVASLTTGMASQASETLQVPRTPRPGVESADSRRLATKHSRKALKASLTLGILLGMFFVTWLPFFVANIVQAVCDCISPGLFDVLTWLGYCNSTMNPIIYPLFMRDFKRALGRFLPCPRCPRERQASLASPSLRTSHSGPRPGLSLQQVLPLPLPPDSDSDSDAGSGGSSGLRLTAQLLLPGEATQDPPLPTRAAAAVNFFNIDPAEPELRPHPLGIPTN

In the case of `CC1CCCCN1C(=O)Cn1c2c(c3cc(Cl)ccc31)CN(C)CC2` (centres unmarked) [Compound 321, 2-(8-chloro-1,2,3,4-tetrahydro-2-methylpyrido[4,3-b]indol-5-yl)-1-(2-methylpiperidin-1-yl)ethanone], the inhibition at 1 µM in experiment [1] (setting [4]) is 50%. Besides, in experiment [2], the “Inhibition of ligand binding, Adren. alpha2A” value (“Inhibition … Adren. alpha2A” below) is given as 12%. In addition, the “Inhibition of ligand binding, Ser. 5-HT6” value in experiment [3] is on record as 15%.
Regarding `Cc1ccc2c(c1)c1c(n2CCc2ccccc2)CCN(C)C1` [Compound 20, 2,3,4,5-tetrahydro-2,8-dimethyl-5-phenethyl-1H-pyrido[4,3-b]indole], in experiment [1] (4 nM compound, […] [3H]Pyrilamine, read-out: Histamine Binding H1, percent inhibition of specific binding), the inhibition at 0.004 µM worked out at 34%. In addition, the inhibition at 0.02 µM in experiment [1] (0.02 μM compound, […] [3H]Pyrilamine, read-out: Histamine Binding H1, percent inhibition of specific binding) was 73%. Further, the inhibition at 0.1 µM in experiment [1] (0.1 μM compound, […] [3H]Pyrilamine, read-out: Histamine Binding H1, percent inhibition of specific binding) is 93%. Moreover, the inhibition at 1 µM in experiment [1] (setting [5]) and in experiment [1] (setting [4]) was 97% each time. In addition, the “Inhibition … Adren. alpha2A” value in experiment [2] is reported as 98%.
In the case of `CC1CCN(C(=O)Cn2c3c(c4cc(Cl)ccc42)CN(C)CC3)CC1` [Compound 237, 2-(8-chloro-1,2,3,4-tetrahydro-2-methylpyrido[4,3-b]indol-5-yl)-1-(4-methylpiperidin-1-yl)ethanone], the inhibition at 1 µM in experiment [1] (setting [5]) and in experiment [1] (setting [4]) was 77% each time. Further, the “Inhibition … Adren. alpha2A” value in experiment [2] was determined as 26%. Further, the “Inhibition of ligand binding, Ser. 5-HT6” value in experiment [3] is 20%.
Turning to `CN1CCc2c(c3cc(Br)ccc3n2CC(=O)N2CCCCC2)C1` [Compound 516, 2-(8-bromo-2-methyl-3,4-dihydro-1H-pyrido[4,3-b]indol-5(2H)-yl)-1-(piperidin-1-yl)ethanone], the values for the inhibition at 1 µM in experiment [1] (setting [6]), in experiment [2] and in experiment [3] were 49%, 3% and 9%, respectively.
Take `CN1CCc2c(c3ncccc3n2CCc2ccncc2)C1` [Compound 482, 9-aza-2-methyl-5-(2-(pyridin-4-yl)ethyl)-2,3,4,5-tetrahydro-1H-pyrido[4,3-b]indole]: the inhibition at 1 µM in experiment [1] (setting [6]) is -2%; in experiment [2], -17%; in experiment [3] it was 4%.
Regarding `Cc1ccc2c(c1)c1c(n2CCc2ccc(C)nc2)CCNC1` [Compound 230, 2,3,4,5-tetrahydro-8-methyl-5-(2-(6-methylpyridin-3-yl)ethyl)-1H-pyrido[4,3-b]indole], the values for the inhibition at 1 µM in experiment [1] (setting [5]) and in experiment [1] (setting [4]) were 46% and 93%, respectively. The “Inhibition … Adren. alpha2A” value in experiment [2] is on record as 56%. Also, the “Inhibition of ligand binding, Ser. 5-HT6” value in experiment [3] is reported as 45%.
As to `CC(=O)N1CCN(C(=O)Cn2c3c(c4cc(Cl)ccc42)CN(C)CC3)CC1` [Compound 297, 1-(4-Acetyl-piperazin-1-yl)-2-(8-chloro-2-methyl-1,2,3,4-tetrahydro-pyrido[4,3-b]indol-5-yl)-ethanone], the inhibition at 1 µM in experiment [1] (setting [4]) was 43%. For the same compound, in experiment [2], the “Inhibition … Adren. alpha2A” value is −2%. Moreover, in experiment [3], the “Inhibition of ligand binding, Ser. 5-HT6” value is listed as 9%.
In the case of `Cc1ccc2c(c1)c1c(n2CCc2cnc(C)nc2)CCN(C)C1` [Compound 323, 2,3,4,5-tetrahydro-2,8-dimethyl-5-(2-(2-methylpyrimidin-5-yl)ethyl)-1H-pyrido[4,3-b]indole], in experiment [1] (setting [4]), the inhibition at 1 µM is 93%. Moreover, in experiment [2], the “Inhibition … Adren. alpha2A” value is listed as 6%. Further, the “Inhibition of ligand binding, Ser. 5-HT6” value in experiment [3] came out at 69%.
Turning to `CN1CCc2c(c3ccncc3n2CCc2ccncc2)C1` [Compound 483, 7-aza-2-methyl-5-(2-(pyridin-4-yl)ethyl)-2,3,4,5-tetrahydro-1H-pyrido[4,3-b]indole], the inhibition at 1 µM was -5% in experiment [1] (setting [6]), -7% in experiment [2] and 13% in experiment [3].
For `CN1CCc2c(c3ncccc3n2CCc2ccccn2)C1` [Compound 484, 9-aza-2-methyl-5-(2-(pyridin-2-yl)ethyl)-2,3,4,5-tetrahydro-1H-pyrido[4,3-b]indole], in that order: 7%, 28% and 14%.
`Cc1ccc(CCn2c3c(c4cc(I)ccc42)CN(C)CC3)cn1` [Compound 485, 2,3,4,5-tetrahydro-8-iodo-2-methyl-5-(2-(6-methylpyridin-3-yl)ethyl)-1H-pyrido[4,3-b]indole]: the results for the inhibition at 1 µM in experiment [1] (setting [6]), in experiment [2] and in experiment [3] were 105%, 86% and 94%, respectively.
Regarding `CN1CCc2c(c3cc(I)ccc3n2CC(=O)N2CCCCC2)C1` [Compound 486, 2-(1,2,3,4-tetrahydro-8-iodo-2-methylpyrido[4,3-b]indol-5-yl)-1-(piperidin-1-yl)ethanone], the inhibition at 1 µM was 28% in experiment [1] (setting [6]), 4% in experiment [2] and 14% in experiment [3].
As for `CCOC(=O)c1ccc(CCn2c3c(c4cc(C)ccc42)CN(C)CC3)cn1` [Compound 275, ethyl 5-(2-(1,2,3,4-tetrahydro-2,8-dimethylpyrido[4,3-b]indol-5-yl)ethyl)pyridine-2-carboxylate], the inhibition at 1 µM in experiment [1] (setting [4]) was found to be 92%. Besides, the “Inhibition … Adren. alpha2A” value in experiment [2] came to 29%. Also, in experiment [3], the “Inhibition of ligand binding, Ser. 5-HT6” value is on record as 56%.
As to `Cc1ccc2c(c1)c1c(n2CCc2ccccn2)CCN(C)C1` [Compound 21, 2,3,4,5-tetrahydro-2,8-dimethyl-5-(2-(pyridin-2-yl)ethyl)-1H-pyrido[4,3-b]indole], the inhibition at 1 µM in experiment [1] (setting [5]) and in experiment [1] (setting [4]) was 79% in each case. Also, the “Inhibition of ligand binding, Ser. 5-HT6” value in experiment [3] amounted to 79%.
For the compound `CC1CCN(C(=O)CCn2c3c(c4cc(Cl)ccc42)CN(C)CC3)CC1` [Compound 325, 3-(8-chloro-1,2,3,4-tetrahydro-2-methylpyrido[4,3-b]indol-5-yl)-1-(4-methylpiperidin-1-yl)propan-1-one], in experiment [1] (setting [4]), the inhibition at 1 µM came to 90%. Further, the “Inhibition … Adren. alpha2A” value in experiment [2] is on record as 58%. Further, the “Inhibition of ligand binding, Ser. 5-HT6” value in experiment [3] turned out to be 41%.
For `Cc1ccc2c(c1)c1c(n2CCc2ccc(OC(C)(C)C)cc2)CCN(C)C1` [Compound 335, 5-(4-tert-butoxyphenethyl)-2,3,4,5-tetrahydro-2,8-dimethyl-1H-pyrido[4,3-b]indole], the inhibition at 1 µM in experiment [1] (setting [4]) was 96%. The “Inhibition … Adren. alpha2A” value in experiment [2] was determined as 31%. For the same compound, the “Inhibition of ligand binding, Ser. 5-HT6” value in experiment [3] was found to be 9%.
In the case of `Cc1ccc(CCn2c3c(c4cc(Br)ccc42)CN(C)CC3)cn1` [Compound 487, 8-bromo-2-methyl-5-(2-(6-methylpyridin-3-yl)ethyl)-2,3,4,5-tetrahydro-1H-pyrido[4,3-b]indole], the inhibition at 1 µM in experiment [1] (setting [6]) was found to be 98%; in experiment [2], 88%; in experiment [3], 94%.
Consider `CN1CCc2c(c3cc(Cl)ccc3n2CCCc2ccc(C(F)(F)F)nc2)C1` [Compound 324, 8-chloro-5-(3-(6-(trifluoromethyl)pyridin-3-yl)propyl)-2,3,4,5-tetrahydro-2-methyl-1H-pyrido[4,3-b]indole], for which the inhibition at 1 µM in experiment [1] (setting [4]) was determined as 101%. Besides, the “Inhibition … Adren. alpha2A” value in experiment [2] stood at 60%. Besides, the “Inhibition of ligand binding, Ser. 5-HT6” value in experiment [3] came to 93%.
